1 molecule from patent US12642796B2, “Method and device of treating chronic kidney disease-associated pruritus” (Avior, Inc., priority 2018, dated 2026) can be followed below.

One assay has as its system C57BL mice. Put plainly: Effect of nalmefene on SP-induced scratching behavior (Example 2). The format is in vivo, mouse. To be noted: nalmefene SC 1 hour prior to SP ID 33.7 μg; 30 and 60 minutes after SP, FIG. 3. On the procedure: Scratching behavior was monitored for 30 and 60 minutes after SP injection. Controls included mice that received PBS instead of SP (N=6, Group 5) and mice that received a placebo dose of PBS and ID dose of SP (N=4, Group 6).

The subject of another assay is C57BL/6 mice. Put plainly: SP and nalmefene injection, scratches Groups 10-12, 0-60 minutes (Example 3). Type of assay: in vivo, mouse. As to the method:
Fifteen male C57BL/6 mice received a single intradermal (ID) bolus injection of substance P (SP) or PBS. Group 10 (N=6) received a single 50 μL injection of PBS. Group 11 (N=4) received SP in PBS at a dose of 0.5 mM/50 μl. […] Scratching behavior was video recorded and assessed.
Groups 10 and 11: All mice were placed in a clear cylindrical enclosure 60 minutes prior to testing to acclimate. An ID bolus injection of SP in PBS was administered. Recording began immediately following injection of SP and recorded for 60 minutes.
Group 12: All mice were placed in clear cylinder enclosures for 60 minutes prior to testing to acclimate. A SC bolus injection of nalmefene was administered. 30 minutes after the nalmefene injection, an ID bolus injection of SP in PBS was administered. Recording began immediately following injection of SP and recorded for 60 minutes.
Animals in Groups 10-12 were acclimated for 1 hour prior to recording. Behavioral recording lasted for 60 minutes (T0-T60). 6 animals were dosed for Group 12 but only 5 animals were tested due to one animal being excluded as an outlier due to no response to SP injection.
The number of scratches per 10-minute time interval for Groups 10-12 is given below in Table 3. The data is also shown graphically in FIG. 4.
The number of scratches per 0-30 minute and 30-60 minute time intervals is given below in Table 4 for Group 10 (PBS), Group 11 (0.5 mM SP), and Group 12 (0.75 mg nalmefene). The data is also shown graphically in FIG. 5.

Where [1] appears, read: Group 12, Nalmefene 0.75 mg SC before SP 0.5 mM ID, 0-30 min.
Setting [2] is: Group 12, Nalmefene 0.75 mg SC before SP 0.5 mM ID, 30-60 min.
The mark [3] stands for this setting: Group 12, nalmefene 0.075 mg/75 μL SC 30 min prior to SP 0.5 mM/50 μL ID, 0-10 min.
Setting [4] is: Group 12, nalmefene 0.075 mg/75 μL SC 30 min prior to SP 0.5 mM/50 μL ID, 10-20 min.
Setting [5] is: Group 12, nalmefene 0.075 mg/75 μL SC 30 min prior to SP 0.5 mM/50 μL ID, 20-30 min.
The mark [6] stands for this setting: Group 12, nalmefene 0.075 mg/75 μL SC 30 min prior to SP 0.5 mM/50 μL ID, 30-40 min.
[7] abbreviates: Group 12, nalmefene 0.075 mg/75 μL SC 30 min prior to SP 0.5 mM/50 μL ID, 40-50 min.
Where [8] appears, read: Group 12, nalmefene 0.075 mg/75 μL SC 30 min prior to SP 0.5 mM/50 μL ID, 50-60 min.

Values joined by “and” are separate entries in the source; they are usually repeats but may differ in a detail not shown here. Identical values can stand only once.

Take `C=C1CC[C@@]2(O)[C@H]3Cc4ccc(O)c5c4[C@@]2(CCN3CC2CC2)[C@H]1O5` [Nalmefene, 6-methylene-6-deoxy-N-cyclopropylmethyl-14 hydroxydihydronormorphine]: in the assay on C57BL mice, the “pruritogenic response to SP” value is “completely mitigated”. Further, the “Scratches, Avg.” value came out at 8.6 in the assay with C57BL/6 mice (setting [1]); 2.9 in the assay with C57BL/6 mice (setting [2]); 2 with C57BL/6 mice (setting [3]); 3 in the assay with C57BL/6 mice (setting [4]); 3.6 in the assay with C57BL/6 mice (setting [5]); 1 with C57BL/6 mice (setting [6]). The “Scratches, Avg.” value in the assay with C57BL/6 mice (setting [7]) worked out at 1.8; in the assay on C57BL/6 mice (setting [8]), 0.1. The “Scratches, individual animals” value was 10 and 29 and 0 (2×) and 4 in the assay on C57BL/6 mice (setting [1]); 1 and 5 and 0 (2×) and 8.5 in the assay with C57BL/6 mice (setting [2]); 10 and 0 (4×) with C57BL/6 mice (setting [3]); 0 (3×) and 13 and 2 with C57BL/6 mice (setting [4]); 0 (3×) and 16 and 2 with C57BL/6 mice (setting [5]); 0 (4×) and 5 with C57BL/6 mice (setting [6]). The “Scratches, individual animals” value is 0.5 and 5 and 0 (2×) and 3.5 in the assay on C57BL/6 mice (setting [7]); 0.5 and 0 (4×) in the assay with C57BL/6 mice (setting [8]). For the same molecule, the “ability to control scratching behavior, and by extension pruritus” value in the assay on C57BL/6 mice (Group 12 vs Groups 10 and 11, 0-60 min) is reported as “maintained over the hour”.
